Our source for the EC50 values is patent publication US12180197B2, “GLP-1R modulating compounds” (Gilead Sciences, Inc., priority 2021, dated 2024).

One assay deals with T1, GLP-1R (Homo sapiens, UniProt P43220). Nature of the assay: GLP-1R Activation - cAMP Assay 1. It is filed as cell-based. The conditions noted are these: cAMP increase in CHO cells stably expressing GLP-1R; 30 minutes incubation; 10 point dose response. How it is done: GLP-1R Activation—cAMP Assay 1
T1 sequence (P43220 24-463): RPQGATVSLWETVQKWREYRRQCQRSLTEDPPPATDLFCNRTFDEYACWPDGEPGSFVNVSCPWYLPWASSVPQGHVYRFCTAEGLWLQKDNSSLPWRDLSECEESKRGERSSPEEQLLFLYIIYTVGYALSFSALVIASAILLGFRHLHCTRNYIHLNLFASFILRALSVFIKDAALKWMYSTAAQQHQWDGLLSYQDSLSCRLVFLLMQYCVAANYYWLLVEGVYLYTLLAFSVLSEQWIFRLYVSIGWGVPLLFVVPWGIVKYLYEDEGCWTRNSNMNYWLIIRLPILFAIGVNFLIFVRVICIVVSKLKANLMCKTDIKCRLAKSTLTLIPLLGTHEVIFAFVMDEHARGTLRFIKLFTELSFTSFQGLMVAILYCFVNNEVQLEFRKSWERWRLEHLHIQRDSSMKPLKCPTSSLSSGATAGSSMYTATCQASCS
GLP-1R activation by a compound of the present disclosure was quantified by measuring cAMP increase in CHO cells stably expressing GLP-1R (MultiSpan product #C1267-1a). The cells were harvested and plated in growth medium (DMEM/F-12 (Corning product #10-090-CV) supplemented with 10% FBS (HyClone product #SH30071-03), penicillin/streptomycin (Corning product #30-002CI) and 10 µg/ml puromycin (Gibco product #A11138-03)) at 1,000 cells/well in a 384-well plate (Greiner product #781080). The cells were then incubated overnight at 37° C., 5% CO2. The next day, the medium was removed and the cells were washed with DPBS (Corning product #21-031-CM) before adding the assay medium (HBSS, Corning product #21-023-CV) with 20 mM Hepes (Gibco product #15630-080) and 0.1% BSA (Rockland Immunochemicals product #BSA-1000)). Following the medium change, the cells were incubated for 1 hour at 37° C., 5% CO2. The tested GLP-1 compound was added to the cells in a 10 point dose response followed by a 30 minutes incubation at 37° C., 5% CO2. cAMP concentration increase was then detected using Cisbio's cAMP Gs Dynamic Kit (product #62AM4PEC) according to the manufacturer's protocol. The response was plotted against the log of the agonist concentration and fitted to a sigmoidal equation to determine the EC50.
Broadly, the EC50 is the concentration at which the effect is half-maximal. Low readings indicate higher potency in that assay, high ones lower potency in that assay. Consider `COCCn1c(CN2CCC(c3cccc(OCc4ccc5cccnc5c4)n3)CC2)nc2ccc(C(=O)O)cc21` [Example 36, 1-(2-methoxyethyl)-2-((4-(6-(quinolin-7-ylmethoxy)pyridin-2-yl)piperidin-1-yl)methyl)-1H-benzo[d]imidazole-6-carboxylic acid], for which a half-maximal effect (EC50) was put at 124 nM.
The same measure, in the same setting: the figure for `COCCn1c(CN2CCC(c3cccc(OCc4c(F)cc(C(N)=O)cc4F)n3)CC2)nc2ccc(C(=O)O)cc21` [Example 37, 2-((4-(6-((4-carbamoyl-2,6-difluorobenzyl)oxy)pyridin-2-yl)piperidin-1-yl)methyl)-1-(2-methoxyethyl)-1H-benzo[d]imidazole-6-carboxylic acid] is 2200 nM; for `COCCn1c(CN2CCC(c3cccc(OCc4ccc(C5CC5)cc4)n3)CC2)nc2ccc(C(=O)O)cc21` [Example 38, 2-((4-(6-((4-cyclopropylbenzyl)oxy)pyridin-2-yl)piperidin-1-yl)methyl)-1-(2-methoxyethyl)-1H-benzo[d]imidazole-6-carboxylic acid] it is 58.3 nM; for `COCCn1c(CN2CCC(c3cccc(OCc4cc5cn[nH]c5cc4F)n3)CC2)nc2ccc(C(=O)O)cc21` [Example 39, 2-((4-(6-((6-fluoro-1H-indazol-5-yl)methoxy)pyridin-2-yl)piperidin-1-yl)methyl)-1-(2-methoxyethyl)-1H-benzo[d]imidazole-6-carboxylic acid] it is over 10000 nM.
`COCCn1c(CN2CCC(c3cccc(OCc4ccc(C#N)c5cccnc45)n3)CC2)nc2ccc(C(=O)O)cc21` [Example 42, 2-((4-(6-((5-cyanoquinolin-8-yl)methoxy)pyridin-2-yl)piperidin-1-yl)methyl)-1-(2-methoxyethyl)-1H-benzo[d]imidazole-6-carboxylic acid] yielded an EC50 of 6.6 nM.
In turn, `COCCn1c(CN2CCC(c3cccc(OCc4ccc5c(c4)COC5=O)n3)CC2)nc2ccc(C(=O)O)cc21` [Example 43, 1-(2-Methoxyethyl)-2-((4-(6-((1-oxo-1,3-dihydroisobenzofuran-5-yl)methoxy)pyridin-2-yl)piperidin-1-yl)methyl)-1H-benzo[d]imidazole-6-carboxylic acid] showed a concentration giving a half-maximal response (EC50) of 345 nM.
Still for that read-out and setting: under `COCCn1c(CN2CCC(c3cccc(OCc4ccc5c(c4)C(=O)OC5)n3)CC2)nc2ccc(C(=O)O)cc21` [Example 44, 1-(2-methoxyethyl)-2-((4-(6-((3-oxo-1,3-dihydroisobenzofuran-5-yl)methoxy)pyridin-2-yl)piperidin-1-yl)methyl)-1H-benzo[d]imidazole-6-carboxylic acid] stands 109 nM.

A further assay concerns the target T1, GLP-1R. Nature of the assay: GLP-1R Activation - cAMP Assay 2. The format is cell-based. The conditions noted are these: cAMP increase in CHO cells stably expressing GLP-1R; pre-spotted agonists; assay buffer or 100% Human Plasma (not given); 30 minutes. The method, then:
GLP-1R Activation—cAMP Assay 2
GLP-1R activation by small molecule agonists is quantified by measuring cAMP increase in CHO cells stably expressing GLP-1R (MultiSpan product #C1267-1a). 50 nL of agonists are pre-spotted in a 10 point dose response onto 384-well plate (Corning product #CL3826) using the Labcyte Echo System. The cells are harvested and plated in assay buffer (HBSS (Corning product #21-023-CV) with 20 mM Hepes (Gibco product #15630-080) and 0.1% BSA (Rockland Immunochemicals product #BSA-1000)) or 100% Human Plasma (Innovative Research product #50-643-396) at 1,000 cells/well, 10 μL/well, onto the pre-spotted plates. The cells are then incubated for 30 minutes at 37° C., 5% CO2. cAMP concentration increase is then detected using Cisbio's cAMP Gs Dynamic Kit (product #62AM4PEC) according to the manufacturer's protocol. The response is plotted against the log of the agonist concentration and fitted to a sigmoidal equation to determine the EC50.
Regarding `Cn1cc(-c2ccc(COc3cccc(C4CCN(Cc5nc6ccc(C(=O)O)cc6n5C[C@@H]5CCO5)CC4)n3)c(F)c2)cn1` [Example 15, 2-[[4-[6-[[2-fluoro-4-(1-methylpyrazol-4-yl)phenyl]methoxy]-2-pyridyl]-1-piperidyl]methyl]-3-[[(2S)-oxetan-2-yl]methyl]benzimidazole-5-carboxylic acid], the EC50 turned out to be 0.5 nM.
As for `COCCn1c(CN2CCC(c3cccc(OCc4ccc(-c5cnn(C(F)F)c5)cc4F)n3)CC2)nc2ccc(C(=O)O)cc21` [Example 16, 2-((4-(6-((4-(1-(difluoromethyl)-1H-pyrazol-4-yl)-2-fluorobenzyl)oxy)pyridin-2-yl)piperidin-1-yl)methyl)-1-(2-methoxyethyl)-1H-benzo[d]imidazole-6-carboxylic acid], the midpoint of the response, the EC50, lay at 11.8 nM.
Same read-out and setting: under `COCCn1c(CN2CCC(c3cccc(OCc4ccc(-c5cn(C)nn5)cc4F)n3)CC2)nc2ccc(C(=O)O)cc21` [Example 17, 2-((4-(6-((2-fluoro-4-(1-methyl-1H-1,2,3-triazol-4-yl)benzyl)oxy)pyridin-2-yl)piperidin-1-yl)methyl)-1-(2-methoxyethyl)-1H-benzo[d]imidazole-6-carboxylic acid] stands 24.6 nM; under `Cn1cc(-c2ccc(COc3cccc(C4CCN(Cc5nc6ccc(C(=O)O)cc6n5C[C@@H]5CCO5)CC4)n3)c(F)c2)nn1` [Example 18, (S)-2-((4-(6-((2-fluoro-4-(1-methyl-1H-1,2,3-triazol-4-yl)benzyl)oxy)pyridin-2-yl)piperidin-1-yl)methyl)-1-(oxetan-2-ylmethyl)-1H-benzo[d]imidazole-6-carboxylic acid], 1.5 nM.
Regarding `O=C(O)c1ccc2nc(CN3CCC(c4cccc(OCc5ccc(-c6cnn(C(F)F)c6)cc5F)n4)CC3)n(C[C@@H]3CCO3)c2c1` [Example 19, (S)-2-((4-(6-((4-(1-(difluoromethyl)-1H-pyrazol-4-yl)-2-fluorobenzyl)oxy)pyridin-2-yl)piperidin-1-yl)methyl)-1-(oxetan-2-ylmethyl)-1H-benzo[d]imidazole-6-carboxylic acid], the response was half-maximal at 0.2 nM (EC50).
Turning to `O=C(O)c1ccc2nc(CN3CCC(c4cccc(OCc5ccc(-c6cnc(C7CC7)o6)cc5F)n4)CC3)n(C[C@@H]3CCO3)c2c1` [Example 20, (S)-2-((4-(6-((4-(2-cyclopropyloxazol-5-yl)-2-fluorobenzyl)oxy)pyridin-2-yl)piperidin-1-yl)methyl)-1-(oxetan-2-ylmethyl)-1H-benzo[d]imidazole-6-carboxylic acid], it took 1.9 nM to reach a half-maximal effect (EC50).
On the same count and under the same terms, the figure for `COCCn1c(CN2CCC(c3cccc(OCc4ccc(-c5cnn(C)c5)cc4F)n3)CC2)nc2ccc(C(=O)O)cc21` [Example 21, 2-((4-(6-((2-fluoro-4-(1-methyl-1H-pyrazol-4-yl)benzyl)oxy)pyridin-2-yl)piperidin-1-yl)methyl)-1-(2-methoxyethyl)-1H-benzo[d]imidazole-6-carboxylic acid] is 7.2 nM.
Same read-out and setting: the figure for `Cn1cc(C#Cc2ccc(COc3cccc(C4CCN(Cc5nc6ccc(C(=O)O)cc6n5C[C@@H]5CCO5)CC4)n3)c(F)c2)cn1` [Example 22, 2-[[4-[6-[[2-fluoro-4-[2-(1-methylpyrazol-4-yl)ethynyl]phenyl]methoxy]-2-pyridyl]-1-piperidyl]methyl]-3-[[(2S)-oxetan-2-yl]methyl]benzimidazole-5-carboxylic acid] is 3.1 nM.
For the compound `O=C(O)c1ccc2nc(CN3CCC(c4cccc(OCc5ccc(-c6cn(C7CC7)nn6)cc5F)n4)CC3)n(C[C@@H]3CCO3)c2c1` [Example 23, (S)-2-((4-(6-((4-(1-cyclopropyl-1H-1,2,3-triazol-4-yl)-2-fluorobenzyl)oxy)pyridin-2-yl)piperidin-1-yl)methyl)-1-(oxetan-2-ylmethyl)-1H-benzo[d]imidazole-6-carboxylic acid], the EC50 was determined as 1.7 nM.
Compound `O=C(O)c1ccc2nc(CN3CCC(c4cccc(OCc5ccc(-c6cn(C7COC7)nn6)cc5F)n4)CC3)n(C[C@@H]3CCO3)c2c1` [Example 24, (S)-2-((4-(6-((2-fluoro-4-(1-(oxetan-3-yl)-1H-1,2,3-triazol-4-yl)benzyl)oxy)pyridin-2-yl)piperidin-1-yl)methyl)-1-(oxetan-2-ylmethyl)-1H-benzo[d]imidazole-6-carboxylic acid] showed an EC50 of 1.7 nM.
The same measure, in the same setting: under `O=C(O)c1ccc2nc(CN3CCC(c4cccc(OCc5ccc(-n6cc(C7CC7)nn6)cc5F)n4)CC3)n(C[C@@H]3CCO3)c2c1` [Example 40, 2-[[4-[6-[[4-(4-cyclopropyltriazol-1-yl)-2-fluoro-phenyl]methoxy]-2-pyridyl]-1-piperidyl]methyl]-3-[[(2S)-oxetan-2-yl]methyl]benzimidazole-5-carboxylic acid] stands 1.3 nM; under `O=C(O)c1ccc2nc(CN3CCC(c4cccc(OCc5ccc(-n6ccnn6)cc5F)n4)CC3)n(C[C@@H]3CCO3)c2c1` [Example 41, (S)-2-((4-(6-((2-fluoro-4-(1H-1,2,3-triazol-1-yl)benzyl)oxy)pyridin-2-yl)piperidin-1-yl)methyl)-1-(oxetan-2-ylmethyl)-1H-benzo[d]imidazole-6-carboxylic acid], 0.3 nM.
